Our source for the T/C values is PubChem BioAssay AID330 (DTP/NCI, 2004).

Molecules are shown by their SMILES. Where “and” joins values, the source holds several entries; their conditions need not be identical. Equal values may be shown once. Toxic doses and inconclusive results are not listed.

The test system of the assay is P388 leukemia ip, CD2F1 mice, survival T/C. As to the kind of experiment: NCI In Vivo Anticancer Drug Screen. Data for tumor model P388 Leukemia (intraperitoneal) in CD2F1 (CDF1) mice. The settings on record: endpoint: median survival time, higher = longer survival. Summed up: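 Mice carrying the transplanted tumor received test compound or vehicle. Survival was recorded in each group, and the value is the treated-group measurement divided by that of the vehicle-treated control group.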

Where [1] appears, read: dose: 50.0 mg/kg/injection, schedule: Q01DX005 (ip), vehicle: saline with Tween-80.
[2] abbreviates: dose: 100.0 mg/kg/injection, schedule: Q01DX005 (ip), vehicle: saline with Tween-80.
Setting [3] is: dose: 200.0 mg/kg/injection, schedule: Q01DX005 (ip), vehicle: saline with Tween-80.
Setting [4] is: dose: 200.0 mg/kg/injection, schedule: Q01DX009 (ip), vehicle: saline with Tween-80.
The mark [5] stands for this setting: dose: 25.0 mg/kg/injection, schedule: Q01DX009 (ip), vehicle: saline.
Setting [6] is: dose: 50.0 mg/kg/injection, schedule: Q01DX009 (ip), vehicle: saline.
[7] abbreviates: dose: 100.0 mg/kg/injection, schedule: Q01DX009 (ip), vehicle: saline.
[8] abbreviates: dose: 200.0 mg/kg/injection, schedule: Q01DX009 (ip), vehicle: saline.
Setting [9] is: dose: 50.0 mg/kg/injection, schedule: Q01DX005 (ip), vehicle: Klucel (hydroxypropylcellulose) (HPC).
Where [10] appears, read: dose: 25.0 mg/kg/injection, schedule: Q01DX009 (ip), vehicle: saline with Tween-80.
Setting [11] is: dose: 50.0 mg/kg/injection, schedule: Q01DX009 (ip), vehicle: saline with Tween-80.
The mark [12] stands for this setting: dose: 100.0 mg/kg/injection, schedule: Q01DX009 (ip), vehicle: saline with Tween-80.
The mark [13] stands for this setting: dose: 100.0 mg/kg/injection, schedule: Q04DX003 (ip), vehicle: saline with Tween-80.
Setting [14] is: dose: 200.0 mg/kg/injection, schedule: Q04DX003 (ip), vehicle: saline with Tween-80.
[15] abbreviates: dose: 12.5 mg/kg/injection, schedule: Q01DX009 (ip), vehicle: saline.
Setting [16] is: dose: 100.0 mg/kg/injection, schedule: Q01DX005 (ip), vehicle: Klucel (hydroxypropylcellulose) (HPC).
The mark [17] stands for this setting: dose: 200.0 mg/kg/injection, schedule: Q01DX005 (ip), vehicle: Klucel (hydroxypropylcellulose) (HPC).
Where [18] appears, read: dose: 50.0 mg/kg/injection, schedule: Q01DX009 (ip), vehicle: Klucel (hydroxypropylcellulose) (HPC).
Where [19] appears, read: dose: 100.0 mg/kg/injection, schedule: Q01DX009 (ip), vehicle: Klucel (hydroxypropylcellulose) (HPC).

For `CCC1OCC(C(Cl)CCl)O1` (stereo unspecified), the T/C by setting is: under setting [1], 102 % of control; under setting [2], 111 % of control; (dose: 132.0 mg/kg/injection, schedule: Q01DX009 (ip), vehicle: saline with Tween-80) 100 % of control; under setting [3], 103 % of control; under setting [4], 118 % of control; (dose: 300.0 mg/kg/injection, schedule: Q01DX009 (ip), vehicle: saline with Tween-80) 118 % of control.
Turning to `CCN(CC)CCN(C)C(=O)C(O)(c1ccccc1)c1ccccc1`, the T/C under setting [5] was 100 % of control, the T/C under setting [6] was 104 % of control, the T/C under setting [7] is 104 % of control and the T/C under setting [8] is 100 % of control.
On to `CN(C)CCCOc1cccc(NC2=C(Cl)C(=O)C(Nc3cccc(OCCCN(C)C)c3)=C(Cl)C2=O)c1`, for which the T/C (dose: 6.25 mg/kg/injection, schedule: Q01DX005 (ip), vehicle: Klucel (hydroxypropylcellulose) (HPC)) was 99 % of control; the T/C (dose: 12.5 mg/kg/injection, schedule: Q01DX005 (ip), vehicle: Klucel (hydroxypropylcellulose) (HPC)) is 100 % of control; the T/C (dose: 25.0 mg/kg/injection, schedule: Q01DX005 (ip), vehicle: Klucel (hydroxypropylcellulose) (HPC)) was 109 % of control; the T/C under setting [9] is 100 % of control.
In the case of `COC(=O)/C=C/N1CCCC1`, the T/C was 101 % of control under setting [10], 108 % of control under setting [11], 101 % of control under setting [12] and 92 % of control under setting [4].
As to `CCCCCC(Cn1ccnc1)c1ccc(Cl)cc1Cl` (stereo unspecified), the T/C was 99 % of control under setting [13]; 94 % of control under setting [14]; 89 % of control (dose: 400.0 mg/kg/injection, schedule: Q04DX003 (ip), vehicle: saline with Tween-80).
In the case of `COc1c2c(nc3ccccc13)-c1cc3c(c(=O)n1C2)COC(=O)C3(O)CC(=O)N1CCOCC1` (stereo unspecified), the T/C under setting [15] is 150 % of control; the T/C under setting [6] is 160 % of control; the T/C under setting [7] was 161 % of control; the T/C (dose: 100.0 mg/kg/injection, schedule: Q01DX009 (ip), vehicle: suspension in saline) was 169 % of control; the T/C (dose: 200.0 mg/kg/injection, schedule: Q01DX009 (ip), vehicle: suspension in saline) is 104 % of control.
Turning to `CN(C)C(=S)Oc1ccccc1C1SCCS1`, the T/C is 101 % of control under setting [1], 99 % of control under setting [2] and 105 % of control under setting [3].
Take `COc1ccc(C(O)c2ccc(OC)c(OC)c2)cc1OC`: the T/C reads like this: (dose: 25.0 mg/kg/injection, schedule: Q01DX009 (ip), vehicle: other) 100 % of control; (dose: 50.0 mg/kg/injection, schedule: Q01DX009 (ip), vehicle: other) 100 % of control; (dose: 100.0 mg/kg/injection, schedule: Q01DX009 (ip), vehicle: other) 96 % of control; (dose: 200.0 mg/kg/injection, schedule: Q01DX009 (ip), vehicle: other) 89 % of control; (dose: 400.0 mg/kg/injection, schedule: Q01DX009 (ip), vehicle: other) 89 % of control.
For the compound `O=c1c2ccccc2n(-c2ccccc2)c2ccccc12`, the T/C is 100 % of control under setting [9], 100 % of control under setting [16] and 99 % of control under setting [17].
Take `COC(COC(=O)N1CCN(C=O)CC1)C1=C(N2CC2)C(=O)C(C)=C(N2CC2)C1=O` (stereo unspecified): the T/C (dose: 3.13 mg/kg/injection, schedule: Q01DX005 (ip), vehicle: saline) is 177 % of control.
Turning to `CC1(CCl)Nc2ccccc2C(=O)N1c1ccc(Cl)cc1` (stereo unspecified), the T/C runs as follows: under setting [11], 94 % of control; under setting [12], 95 % of control; under setting [4], 89 % of control.
On to `CCOC(=O)C1(O)CC2(CCC(OCc3ccccc3)CC2)C(=O)O1` (stereo unspecified), for which the T/C under setting [6] was 102 % of control, the T/C under setting [7] was 100 % of control and the T/C under setting [8] was 98 % of control.
With `CCOc1ccc2c(N/N=C/c3ccc(N(CCCl)CCCl)cc3)cc(C)nc2c1`, the T/C was 96 % of control (dose: 12.5 mg/kg/injection, schedule: Q01DX009 (ip), vehicle: saline with Tween-80); 94 % of control under setting [10]; 99 % of control and 88 % of control under setting [11].
As to `COc1cccc(C(Nc2ncccn2)c2cc3c(cc2O)OCO3)c1O` (stereo unspecified), the T/C runs as follows: (dose: 60.0 mg/kg/injection, schedule: Q01DX005 (ip), vehicle: saline with Tween-80) 103 % of control; (dose: 120.0 mg/kg/injection, schedule: Q01DX005 (ip), vehicle: saline with Tween-80) 94 % of control; (dose: 240.0 mg/kg/injection, schedule: Q01DX005 (ip), vehicle: saline with Tween-80) 94 % of control.
For `C=C(N)/C=C1/NC(C)=CS1`, the T/C (dose: 15.0 mg/kg/injection, schedule: Q01DX005 (ip), vehicle: saline) is 96 % of control; the T/C (dose: 30.0 mg/kg/injection, schedule: Q01DX005 (ip), vehicle: saline) is 96 % of control; the T/C (dose: 60.0 mg/kg/injection, schedule: Q01DX005 (ip), vehicle: saline) was 91 % of control and 94 % of control.
For `COC(=O)Nc1cn2ccc(Sc3ccccc3)cc2n1`, the T/C runs as follows: under setting [18], 103 % of control and 109 % of control; under setting [19], 105 % of control and 122 % of control.
In the case of `CC(=O)OC1N(C(C)=O)C(SC23CC4CC(CC(C4)C2)C3)C(C)=CC1(C)OC(C)=O` (stereo unspecified), the T/C is 111 % of control under setting [18]; 110 % of control under setting [19]; 105 % of control (dose: 200.0 mg/kg/injection, schedule: Q01DX009 (ip), vehicle: Klucel (hydroxypropylcellulose) (HPC)).
`COc1ccc2nc3cc(Cl)ccc3c(NCCCNCCCCNCCCNc3c4ccc(Cl)cc4nc4ccc(OC)cc34)c2c1`: the T/C was 106 % of control (dose: 0.62 mg/kg/injection, schedule: Q01DX009 (ip), vehicle: other); 110 % of control (dose: 1.25 mg/kg/injection, schedule: Q01DX009 (ip), vehicle: other); 119 % of control (dose: 2.5 mg/kg/injection, schedule: Q01DX009 (ip), vehicle: other).
Regarding `CSc1nccnn1`, the T/C (dose: 6.25 mg/kg/injection, schedule: Q01DX009 (ip), vehicle: saline) is 109 % of control; the T/C under setting [15] is 115 % of control; the T/C under setting [5] was 108 % of control and 116 % of control; the T/C under setting [6] was 118 % of control; the T/C under setting [7] is 120 % of control.
Regarding `CCOC(=O)/C(=C/C(C#N)=C/N(C)C)CC`, the T/C is, setting by setting: (dose: 50.0 mg/kg/injection, schedule: Q04DX003 (ip), vehicle: saline with Tween-80) 104 % of control; under setting [13], 95 % of control; under setting [14], 109 % of control.
Regarding `COc1ccc2c(C)cc(NNC(N)=S)nc2c1`, the T/C is, setting by setting: under setting [9], 104 % of control and 107 % of control; under setting [16], 111 % of control and 120 % of control.
Regarding `Oc1ccc(O)c(-c2c(-c3ccccc3)cc3ccccn23)c1`, the T/C is, setting by setting: under setting [9], 102 % of control; under setting [16], 104 % of control; under setting [17], 104 % of control.
With `C/C(=N\N/C=N/S(=O)(=O)c1ccccc1)c1ccccc1`, the T/C runs as follows: under setting [9], 88 % of control; under setting [16], 89 % of control; under setting [17], 89 % of control.
In the case of `CCC[CH2][Hg][Cl]`, the T/C runs as follows: (dose: 3.3 mg/kg/injection, schedule: Q01DX009 (ip), vehicle: other) 95 % of control; (dose: 5.0 mg/kg/injection, schedule: Q01DX009 (ip), vehicle: other) 100 % of control; (dose: 7.5 mg/kg/injection, schedule: Q01DX009 (ip), vehicle: other) 118 % of control.
On to `COc1ccc(-c2sc(-c3ccccc3)nc2O)cc1`, for which the T/C runs as follows: under setting [11], 89 % of control; under setting [12], 89 % of control; under setting [4], 92 % of control.
Consider `Brc1cnn(Cn2cc(Br)cn2)c1`, for which the T/C is 102 % of control (dose: 60.0 mg/kg/injection, schedule: Q01DX005 (ip), vehicle: Klucel (hydroxypropylcellulose) (HPC)); 102 % of control (dose: 120.0 mg/kg/injection, schedule: Q01DX005 (ip), vehicle: Klucel (hydroxypropylcellulose) (HPC)); 99 % of control (dose: 240.0 mg/kg/injection, schedule: Q01DX005 (ip), vehicle: Klucel (hydroxypropylcellulose) (HPC)).
